What all share (format): cell-based, human
In test [1] the test system is LNCaP.FGC prostate adenocarcinoma cells. In words: MTT proliferation assay, LNCaP.FGC prostate adenocarcinoma. The note with it: Catalase 3000 U/ml; 10% FBS; 48 hours; mean±SE vs control. As for the experimental part:
Measurement of Proliferation in Cell Cultures. […] This assay empirically distinguishes between dead and living cells.
Cell Culture Treatments. The effect of antioxidant treatments on proliferation of malignant cell lines was studied in cultures stimulated with 10% FBS. Cell numbers were quantitated by the MTT assay 24-72 hours later. In some experiments, antioxidants were added immediately after cells were plated. In other experiments, cells were plated and allowed to grow for 24 hours before fresh media with antioxidants was added, and cell numbers were studied by the MTT assay 48 hours later.
Cells stimulated with 10% FBS were plated at a density of 50,000 cells per well. DMSO and antioxidants were added to cell wells at the indicated concentrations. […] Each value represents a mean of at least 4 experiments.

The test system of test [2] is phosphorylated IκBα (IκBα-P). Put plainly: Immunoassay for phosphorylated IκBα. The note with it: M1619; catalase 3,000 U/ml for 24 hours. As for the experimental part: (§1) The effect of antioxidants on expression of cell cyclins, cyclin-associated kinases, cell cycle inhibitors and IκBα was studied by incubating near confluent cell cultures with antioxidant treatments for 15 min-48 hours. Cells were lysed and protein levels were measured by immunoblot assay as described below. In other experiments, the ratio of phosphorylated-IκBα to total IκBα was determined by harvest of cytosolic protein 24 hours after treating cultures with 3,000 U/ml catalase.
The NF-κB inhibitor IκBα and phosphorylated IκBα were assayed with several modifications of the above procedure. Cells were lysed in boiling buffer to which 50 mM DTT had been added as a reducing agent. Immunoassay of IκBα. proceeded as above, but samples for measurement of phosphorylated IκBα were blocked 2 hours at room temperature and incubated overnight at 4° C. with primary phospho-specific antibodies diluted 1:1000 in PBS with 0.1% Tween and 5% BSA.
M1619 cells either treated with catalase with 3,000 U/ml for 24 hours or untreated were used in immunoassays for phosphorylated IκBα (IκBα-P) using phospho-specific antibody as described above.
Mean ratios of the densitometrically determined sum intensities of IκBα-P staining in the immunoassay experiments are shown in FIG. 5B.

In test [3] the test system is cyclin B1 and p34-cdc2 kinase. Put plainly: Immunoblot of cyclins, cyclin-associated kinases, inhibitors, p53. As to conditions: M1619. As for the experimental part:
as §1
Immunoassay for Proteins. Cells were lysed and proteins were isolated and quantitated by immunoassay as previously detailed, using 2 μg/ml of primary rabbit polyclonal antibodies against human p53, the cyclins D1, E, A and B1, the cyclin-associated kinases cdk2 and cdc2, the cyclin kinase inhibitors p21^WAF1/Cip1 and p27, and peroxidase-labeled donkey polyclonal anti-rabbit IgG. […] Cells were placed on ice, washed twice with cold DPBS, scraped into 0.5 ml boiling buffer (10% [vol/vol] glycerol and 2% [wt/vol] sodium dodecyl sulfate [SDS] in 83 mM Tris, pH 6.8) and sheared by four passages through a pipette. Aliquots were removed for protein determination, using the BCA protein assay (Pierce). […] Immunoblots were rinsed again as above and detected using an enhanced chemiluminescence method (ECL Western blotting detection system, Amersham Life Science, Buckinghamshire, England) and autoradiography. […]
In general terms: In western blotting, separated proteins are transferred to a membrane and probed.

As to Catalase, the “Percent Growth Inhibition” value in test [1] is 43 ± 7. In addition, the “amount of IκBα that is phosphorylated” value in test [2] is reported as “decreases”. Also, the “expression of cyclin B1 and its associated kinase p34-cdc2” value in test [3] (3,000 U/ml catalase) is on record as “significant decrease”. The “protein levels of cyclins D1, E, A, cdk2, p53, p21WAF1/Cip1, p27” value in test [3] (catalase-treated vs controls, data not shown) is given as “did not decrease”.

The values are drawn from patent publication US20070142462A1, “Method of Treating Cancer” (The University of Utah, priority 2000, published 2007).
